Several values for one entry are separate records, joined by “and”; a condition that tells them apart may be missing. Equal values may be shown once. Toxic doses and inconclusive results are not listed. No stated cut-off is given here; in the data, active means T/C of 150% or more; inactive means T/C below 125%.
Tested on: L1210 leukemia ip in BDF1 mice, survival T/C
Experiment: NCI In Vivo Anticancer Drug Screen. Data for tumor model L1210 Leukemia (intraperitoneal) in B6D2F1 (BDF1) mice
Conditions: endpoint: mean survival time, higher = longer survival
Procedure, shortened: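 Survival endpoint. Drug-treated group vs vehicle group, expressed as T divided by C. Tumor passaged by transplantation.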

[1] = dose: 50.0 mg/kg/injection, schedule: Q01DX001 (ip), vehicle: saline
[2] = dose: 100.0 mg/kg/injection, schedule: Q01DX001 (ip), vehicle: saline

Measured: T/C

Nc1ncnc2c1ncn2C1OC(CO)C(O)C1O (configuration not stated)
inactive: dose: 6.25 mg/kg/injection, schedule: Q01DX009 (ip), vehicle: Klucel (hydroxypropylcellulose) (HPC) 115 % of control | dose: 7.8 mg/kg/injection, schedule: Q#A X012 (ip), vehicle: methylcellulose (MC) 102 % of control and 109 % of control | dose: 12.5 mg/kg/injection, schedule: Q01DX009 (ip), vehicle: Klucel (hydroxypropylcellulose) (HPC) 112 % of control | dose: 12.5 mg/kg/injection, schedule: Q04DX002 (ip), vehicle: Klucel (hydroxypropylcellulose) (HPC) 100 % of control | dose: 13.0 mg/kg/injection, schedule: Q#A X012 (ip), vehicle: methylcellulose (MC) 103 % of control and 109 % of control | dose: 22.0 mg/kg/injection, schedule: Q#A X012 (ip), vehicle: methylcellulose (MC) 102 % of control and 110 % of control | dose: 25.0 mg/kg/injection, schedule: Q01DX001 (ip), vehicle: saline 103 % of control | dose: 25.0 mg/kg/injection, schedule: Q01DX009 (ip), vehicle: Klucel (hydroxypropylcellulose) (HPC) 100 % of control and 108 % of control | dose: 25.0 mg/kg/injection, schedule: Q04DX002 (ip), vehicle: Klucel (hydroxypropylcellulose) (HPC) 107 % of control | dose: 25.0 mg/kg/injection, schedule: Q04DX003 (ip), vehicle: saline 105 % of control | dose: 36.0 mg/kg/injection, schedule: Q#A X012 (ip), vehicle: methylcellulose (MC) 106 % of control and 108 % of control | [1] 100 % of control | dose: 50.0 mg/kg/injection, schedule: Q01DX009 (ip), vehicle: Klucel (hydroxypropylcellulose) (HPC) 101 % of control and 107 % of control | dose: 50.0 mg/kg/injection, schedule: Q04DX002 (ip), vehicle: Klucel (hydroxypropylcellulose) (HPC) 97 % of control | dose: 50.0 mg/kg/injection, schedule: Q04DX003 (ip), vehicle: saline 116 % of control | dose: 60.0 mg/kg/injection, schedule: Q#A X012 (ip), vehicle: methylcellulose (MC) 106 % of control | dose: 100.0 mg/kg/injection, schedule: Q01DX001 (ip), vehicle: carboxymethylcellulose (CMC) 100 % of control | [2] 100 % of control and 110 % of control | dose: 100.0 mg/kg/injection, schedule: Q01DX005 (ip), vehicle: saline 106 % of control and 95 % of control and 92 % of control | dose: 100.0 mg/kg/injection, schedule: Q01DX009 (ip), vehicle: Klucel (hydroxypropylcellulose) (HPC) 103 % of control | dose: 100.0 mg/kg/injection, schedule: Q01DX009 (ip), vehicle: saline 94 % of control | dose: 100.0 mg/kg/injection, schedule: Q04DX003 (ip), vehicle: saline 104 % of control and 112 % of control | dose: 118.0 mg/kg/injection, schedule: Q01DX005 (ip), vehicle: water 112 % of control | dose: 118.0 mg/kg/injection, schedule: Q01DX009 (ip), vehicle: water 112 % of control | dose: 150.0 mg/kg/injection, schedule: Q01DX009 (ip), vehicle: saline 105 % of control | dose: 177.0 mg/kg/injection, schedule: Q01DX005 (ip), vehicle: water 114 % of control | dose: 177.0 mg/kg/injection, schedule: Q01DX009 (ip), vehicle: saline with Tween-80 120 % of control | dose: 177.0 mg/kg/injection, schedule: Q01DX009 (ip), vehicle: water 111 % of control | dose: 200.0 mg/kg/injection, schedule: Q01DX001 (ip), vehicle: carboxymethylcellulose (CMC) 100 % of control and 107 % of control | dose: 200.0 mg/kg/injection, schedule: Q01DX005 (ip), vehicle: saline 95 % of control and 101 % of control and 87 % of control | dose: 200.0 mg/kg/injection, schedule: Q01DX009 (ip), vehicle: Klucel (hydroxypropylcellulose) (HPC) 97 % of control | dose: 200.0 mg/kg/injection, schedule: Q01DX009 (ip), vehicle: carboxymethylcellulose (CMC) 114 % of control | dose: 200.0 mg/kg/injection, schedule: Q01DX009 (ip), vehicle: saline 102 % of control | dose: 200.0 mg/kg/injection, schedule: Q04DX003 (ip), vehicle: saline 94 % of control | dose: 266.0 mg/kg/injection, schedule: Q01DX005 (ip), vehicle: water 115 % of control | dose: 266.0 mg/kg/injection, schedule: Q01DX009 (ip), vehicle: saline with Tween-80 124 % of control | dose: 266.0 mg/kg/injection, schedule: Q01DX009 (ip), vehicle: water 112 % of control | dose: 300.0 mg/kg/injection, schedule: Q01DX009 (ip), vehicle: saline 102 % of control | dose: 400.0 mg/kg/injection, schedule: Q01DX001 (ip), vehicle: carboxymethylcellulose (CMC) 106 % of control and 109 % of control | dose: 400.0 mg/kg/injection, schedule: Q01DX005 (ip), vehicle: water 112 % of control | dose: 400.0 mg/kg/injection, schedule: Q01DX009 (ip), vehicle: Klucel (hydroxypropylcellulose) (HPC) 116 % of control | dose: 400.0 mg/kg/injection, schedule: Q01DX009 (ip), vehicle: saline 107 % of control | dose: 400.0 mg/kg/injection, schedule: Q01DX009 (ip), vehicle: water 117 % of control | dose: 400.0 mg/kg/injection, schedule: Q04DX003 (ip), vehicle: saline 88 % of control | dose: 500.0 mg/kg/injection, schedule: Q03HX024 (ip), vehicle: saline with Tween-80 124 % of control | dose: 600.0 mg/kg/injection, schedule: Q01DX005 (ip), vehicle: water 110 % of control | dose: 600.0 mg/kg/injection, schedule: Q01DX009 (ip), vehicle: saline 109 % of control | dose: 600.0 mg/kg/injection, schedule: Q01DX009 (ip), vehicle: water 119 % of control | dose: 600.0 mg/kg/injection, schedule: Q03HX024 (ip), vehicle: saline with Tween-80 113 % of control | dose: 800.0 mg/kg/injection, schedule: Q01DX001 (ip), vehicle: carboxymethylcellulose (CMC) 107 % of control | dose: 800.0 mg/kg/injection, schedule: Q01DX009 (ip), vehicle: Klucel (hydroxypropylcellulose) (HPC) 103 % of control | dose: 800.0 mg/kg/injection, schedule: Q01DX009 (ip), vehicle: carboxymethylcellulose (CMC) 122 % of control | dose: 900.0 mg/kg/injection, schedule: Q01DX005 (ip), vehicle: water 115 % of control | dose: 900.0 mg/kg/injection, schedule: Q01DX009 (ip), vehicle: water 122 % of control | dose: 1000.0 mg/kg/injection, schedule: Q01DX009 (ip), vehicle: carboxymethylcellulose (CMC) 112 % of control | dose: 1200.0 mg/kg/injection, schedule: Q01DX009 (ip), vehicle: carboxymethylcellulose (CMC) 118 % of control | dose: 1600.0 mg/kg/injection, schedule: Q01DX001 (ip), vehicle: carboxymethylcellulose (CMC) 112 % of control

O=Cc1c2ccccc2cc2ccccc12
inactive: dose: 9.5 mg/kg/injection, schedule: Q01DX015 (ip), vehicle: saline 96 % of control | dose: 9.5 mg/kg/injection, schedule: Q## X015 (ip), vehicle: saline 94 % of control | dose: 9.7 mg/kg/injection, schedule: Q01DX015 (ip), vehicle: other 97 % of control | dose: 16.2 mg/kg/injection, schedule: Q01DX015 (ip), vehicle: other 107 % of control | dose: 16.2 mg/kg/injection, schedule: Q## X015 (ip), vehicle: saline 94 % of control | dose: 27.0 mg/kg/injection, schedule: Q01DX015 (ip), vehicle: other 104 % of control | dose: 27.0 mg/kg/injection, schedule: Q## X015 (ip), vehicle: saline 96 % of control | dose: 45.0 mg/kg/injection, schedule: Q01DX015 (ip), vehicle: other 91 % of control | dose: 45.0 mg/kg/injection, schedule: Q01DX015 (ip), vehicle: saline 96 % of control and 109 % of control | dose: 45.0 mg/kg/injection, schedule: Q## X015 (ip), vehicle: saline 94 % of control | [1] 95 % of control and 100 % of control and 103 % of control | [2] 97 % of control and 100 % of control and 103 % of control | dose: 200.0 mg/kg/injection, schedule: Q01DX001 (ip), vehicle: saline 101 % of control | dose: 400.0 mg/kg/injection, schedule: Q01DX001 (ip), vehicle: saline 97 % of control and 101 % of control and 114 % of control | dose: 800.0 mg/kg/injection, schedule: Q01DX001 (ip), vehicle: saline 100 % of control
